Biological target: T1, MMP-13 (Homo sapiens, UniProt P45452)
T1 construct: 10 μL of a 50 nM stock solution of catalytic domain of MMP-13 enzyme; purchased Invitek (Berlin) 30100812
Assay: Assay for determining MMP-13 inhibition (fluorescent substrate)
Type: biochemical
Details: catalytic domain of MMP-13
Description: The inhibiting activity towards different metalloproteases of the heterocyclic metalloprotease inhibiting compounds of the present invention may be measured using any suitable assay known in the art. A standard in vitro assay for measuring the metalloprotease inhibiting activity is described in Examples 1700 to 1704.
The typical assay for MMP-13 activity is carried out in assay buffer comprised of 50 mM Tris, pH 7.5, 150 mM NaCl, 5 mM CaCl2 and 0.05% Brij-35. Different concentrations of tested compounds are prepared in assay buffer in 50 μL aliquots. 10 μL of a 50 nM stock solution of catalytic domain of MMP-13 enzyme (produced by Alantos or commercially available from Invitek (Berlin), Cat.# 30100812) is added to the compound solution. The mixture of enzyme and compound in assay buffer is thoroughly mixed and incubated for 10 min at room temperature. Upon the completion of incubation, the assay is started by addition of 40 μL of a 12.5 μM stock solution of MMP-13 fluorescent substrate (Calbiochem, Cat. No. 444235). The time-dependent increase in fluorescence is measured at the 320 nm excitation and 390 nm emission by automatic plate multireader. The IC50 values are calculated from the initial reaction rates.

[1] = compounds stated as lower than 100 nM

Row | SMILES | IC50 [1] [nM] | IC50 (range class, units printed within the value (nM to μM)) [nM]
1 | Cc1c(C(=O)O)ccc2c1CC[C@@H]2NC(=O)c1cc(C(=O)NCc2ccc3c(c2)NC(=S)CO3)nc2ccnn12 [1/1] | < 100 | –
2 | Cc1c(C(=O)O)ccc2c1CC[C@@H]2NC(=O)c1cc(C(=O)NCc2ccc3c(c2)-n2cnnc2CO3)nc2ccnn12 [Example 1] | < 100 | –
3 | Cc1c(C(=O)O)ccc2c1CC[C@@H]2NC(=O)c1cc(C(=O)NCc2ccc3c(c2)-n2c(noc2=O)CO3)nc2ccnn12 [Example 1/2] | – | 100 to 20000

Source: patent US7691851B2, “Metalloprotease inhibitors containing a heterocyclic moiety” (Alantos Pharmaceuticals Holding, Inc., priority 2007, dated 2010)
